Read-outs that look alike come from different tables or passages of the source.
Tests used:
Format in all cases: cell-based, human
[1] = test system: NCI panel of 60 tumor cell lines; assay: NCI SRB growth inhibition, whole panel mean (single dose 10 µM / five-dose); settings: Homo sapiens, 10 µM
Description: Screening of cytotoxic activity against a panel of sixty human tumor cell lines The selected compounds by NCI were evaluated for their anticancer activity in a two- stage process. […] Then, the output from the single dose screen is reported as a mean graph. […] Assay protocol. […] For a typical screening experiment, cells are inoculated into 96 well microtiter plates in 100 µL at plating densities ranging from 5000 to 40,000 cells/well depending on the doubling time of individual cell lines. […] After 24 h, two plates of each cell line are fixed in situ with TCA, to represent a measurement of the cell population for each cell line at the time of drug addition (Tz). The experimental drugs are solubilized in dimethyl sulfoxide at 400-fold the desired final maximum test concentration and stored frozen prior to use. At the time of drug addition, an aliquot of frozen concentrate is thawed and diluted to twice the desired final maximum test concentration with complete medium containing 50 µg/mL gentamicin. Additional four, 10-fold or ½ log serial dilutions are made to provide a total of five drug concentrations plus control. Aliquots of 100 mL of these different drug dilutions are added to the appropriate microtiter wells already containing […] of medium, resulting in the required final drug concentrations. […] For adherent cells, the assay is terminated by the addition of cold TCA. […] The supernatant is discarded, and the plates are washed five times with tap water and air dried. Sulforhodamine B (SRB) solution ([…]) at 0.4% (w/v) in 1% acetic acid is added to each well, and plates are incubated for 10 min at room temperature. After staining, unbound dye is removed by washing five times with 1% acetic acid and the plates are air dried. […] Using the seven absorbance measurements [time zero, (Tz), control growth, (C), and test growth in the presence of drug at the five concentration levels (Ti)], the percentage growth is calculated at each of the drug concentrations levels. Percentage growth inhibition is calculated as: [(Ti Tz)/(C–Tz)] x 100 for concentrations for which Ti>/=Tz and [(Ti-Tz)/Tz] x 100 for concentrations for which Ti < Tz. Three dose response parameters are calculated for each experimental agent. […] The drug concentration resulting in total growth inhibition (TGI) is calculated from Ti = Tz. […] Values are calculated for each of these three parameters if the level of activity is reached; however, if the effect is not reached or is exceeded, the value for that parameter is expressed as greater or less than the maximum or minimum concentration tested.

COLO 205 = assay: NCI SRB growth inhibition (single dose 10 µM / five-dose); settings: Homo sapiens; COLO 205 (Colon cancer), 10 µM; read-out: GI%
Outline: (§1)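 Three dose–response parameters were calculated per compound, among them TGI, defined at Ti = Tz. Percentage growth came from SRB absorbance normalised to time-zero and control wells, with negative values indicating cell kill below Tz.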

HCT-15 = assay: as above; settings: Homo sapiens; HCT-15 (Colon cancer), 10 µM; read-out: GI%
Outline: as §1

HL-60(TB) = assay: as above; settings: Homo sapiens; HL-60(TB) (Leukemia), 10 µM; read-out: GI%
Outline: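 Two-stage NCI-60 screen: single-dose test first, then five-dose testing. Growth is scored by sulforhodamine B staining of TCA-fixed cells relative to a time-zero plate, and TGI is taken where Ti = Tz.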

HOP-62 = assay: as above; settings: Homo sapiens; HOP-62 (Non-small cell lung cancer), 10 µM; read-out: GI%
Outline: as §1

IGROV1 = assay: as above; settings: Homo sapiens, IGROV-1; IGROV1 (Ovarian cancer), 10 µM; read-out: GI%
Outline: as §1

KM12 = assay: as above; settings: Homo sapiens; KM12 (Colon cancer), 10 µM; read-out: GI%
Outline: as §1

MDA-MB-435 = assay: as above; settings: Homo sapiens; MDA-MB-435 (Melanoma), 10 µM; read-out: GI%
Outline: as §1

NCI-H23 = assay: as above; settings: Homo sapiens; NCI-H23 (Non-small cell lung cancer), 10 µM; read-out: GI%
Outline: as §1

NCI-H322M = assay: as above; settings: Homo sapiens; NCI-H322M (Non-small cell lung cancer), 10 µM; read-out: GI%
Outline: as §1

NCI-H460 = assay: as above; settings: Homo sapiens; NCI-H460 (Non-small cell lung cancer), 10 µM; read-out: GI%
Outline: as §1

NCI-H522 = assay: as above; settings: Homo sapiens; NCI-H522 (Non-small cell lung cancer), 10 µM; read-out: GI%
Outline: as §1

OVCAR-3 = assay: as above; settings: Homo sapiens; OVCAR-3 (Ovarian cancer), 10 µM; read-out: GI%
Outline: as §1

OVCAR-4 = assay: as above; settings: Homo sapiens; OVCAR-4 (Ovarian cancer), 10 µM; read-out: GI%
Outline: as §1

OVCAR-8 = assay: as above; settings: Homo sapiens; OVCAR-8 (Ovarian cancer), 10 µM; read-out: GI%
Outline: as §1

PC-3 = assay: as above; settings: Homo sapiens; PC-3 (Prostate cancer), 10 µM; read-out: GI%
Outline: as §1

SF-268 = assay: as above; settings: Homo sapiens; SF-268 (CNS cancer), 10 µM; read-out: GI%
Outline: as §1

SK-OV-3 = assay: as above; settings: Homo sapiens; SK-OV-3 (Ovarian cancer), 10 µM; read-out: GI%
Outline: as §1

T-47D = assay: as above; settings: Homo sapiens, T47D; T-47D (Breast cancer), 10 µM; read-out: GI%
Outline: as §1

U251 = assay: as above; settings: Homo sapiens, U-251; U251 (CNS cancer), 10 µM; read-out: GI%
Outline: as §1

UACC-62 = assay: as above; settings: Homo sapiens; UACC-62 (Melanoma), 10 µM; read-out: GI%
Outline: as §1

UO-31 = assay: as above; settings: Homo sapiens; UO-31 (Renal cancer), 10 µM; read-out: GI%
Outline: as §1

[2] = mean over NCI 60 cell lines, > 100% = lethal effect, read-out: mean growth inhibition % (GI%)
[3] = mean over NCI panel of 60 tumor cell lines, read-out: Mean growth inhibition %

| Structure (SMILES) | inhibition at 10 µM [1, 2] | inhibition at 10 µM [1, 3] | inhibition at 10 µM (COLO 205) | inhibition at 10 µM (HCT-15) | inhibition at 10 µM (HL-60(TB)) | inhibition at 10 µM (HOP-62) | inhibition at 10 µM (IGROV1) | inhibition at 10 µM (KM12) | inhibition at 10 µM (MDA-MB-435) | inhibition at 10 µM (NCI-H23) | inhibition at 10 µM (NCI-H322M) | inhibition at 10 µM (NCI-H460) | inhibition at 10 µM (NCI-H522) | inhibition at 10 µM (OVCAR-3) | inhibition at 10 µM (OVCAR-4) | inhibition at 10 µM (OVCAR-8) | inhibition at 10 µM (PC-3) | inhibition at 10 µM (SF-268) | inhibition at 10 µM (SK-OV-3) | inhibition at 10 µM (T-47D) | further results |
| --- | --- | --- | --- | --- | --- | --- | --- | --- | --- | --- | --- | --- | --- | --- | --- | --- | --- | --- | --- | --- | --- |
| O=C(NN=Cc1cccc(O)c1)c1ccc2[nH]c(-c3ccccc3)nc2c1 [8b, N'-(3-Hydroxybenzylidene)-2-phenyl-1H-benzo[d]imidazole-5-carbohydrazide] | 8.49% | 8.49% | < 5% | < 5% | 14.4% | 19.3% | 13% | 19.8% | 5.45% | < 5% | < 5% | < 5% | 38.1% | 11.1% | 12.4% | 10.3% | 11.8% | 16.8% | 25.6% | 50.9% | inhibition at 10 µM (U251): < 5%; inhibition at 10 µM (UACC-62): < 5%; inhibition at 10 µM (UO-31): 21.6% |
| COc1cccc(C=NNC(=O)c2ccc3[nH]c(-c4ccccc4)nc3c2)c1 [8c, N'-(3-Methoxybenzylidene)-2-phenyl-1H-benzo[d]imidazole-5-carbohydrazide] | 20.7% | 20.7% | 32.6% | 27.5% | 38.1% | 15.4% | 10.1% | 26% | 18.9% | 9.68% | 6.09% | 13.1% | 26% | 7.38% | 20.1% | 24.5% | 24.6% | 15.1% | 64% | 69.1% | inhibition at 10 µM (U251): 14.3%; inhibition at 10 µM (UACC-62): 14.7%; inhibition at 10 µM (UO-31): 30.6% |
| COc1ccc(C=NNC(=O)c2ccc3[nH]c(-c4ccccc4)nc3c2)cc1O [8e, N'-(3-Hydroxy-4-methoxybenzylidene)-2-phenyl-1H-benzo[d]imidazole-5-carbohydrazide] | 16.8% | 16.8% | 35.4% | < 5% | 24.7% | 21.4% | 22% | 21.9% | 30.4% | < 5% | < 5% | < 5% | 29.4% | 7.25% | < 5% | 25.2% | 11.5% | 16% | 56.3% | 39.3% | inhibition at 10 µM (U251): 14.6%; inhibition at 10 µM (UACC-62): 18.7%; inhibition at 10 µM (UO-31): 38.2% |
| COc1ccc(-c2nc3cc(C(=O)NN=Cc4cccc(O)c4)ccc3[nH]2)cc1 [8i, N'-(3-Hydroxybenzylidene)-2-(4-methoxyphenyl)-1H-benzo[d]imidazole-5-carbohydrazide] | 33.1% | 33.1% | 32.4% | 5.17% | 55.1% | 42% | 11.2% | 38.7% | 63.8% | 6.56% | 18.3% | 5.05% | 43.4% | 8.04% | 27.1% | 38.1% | 34.4% | 37.4% | 54% | 86.8% | inhibition at 10 µM (U251): 32.1%; inhibition at 10 µM (UACC-62): 50.8%; inhibition at 10 µM (UO-31): 10.5% |
| COc1ccc(-c2nc3cc(C(=O)NN=Cc4cc(OC)ccc4OC)ccc3[nH]2)cc1 [8m, N'-(2,5-Dimethoxybenzylidene)-2-(4-methoxyphenyl)-1H-benzo[d]imidazole-5-carbohydrazide] | 10.9% | 10.9% | < 5% | 13.7% | 18.8% | 19.4% | < 5% | 11.7% | < 5% | < 5% | < 5% | < 5% | 21.3% | < 5% | 8.31% | 23.6% | 13.6% | 9.02% | < 5% | 40.6% | inhibition at 10 µM (U251): 9.71%; inhibition at 10 µM (UACC-62): 6.39%; inhibition at 10 µM (UO-31): 9.12% |
| O=C(NN=Cc1cccc(O)c1)c1ccc2[nH]c(-c3ccc(Cl)cc3)nc2c1 [8p, 2-(4-Chlorophenyl)-N'-(3-hydroxybenzylidene)-1H-benzo[d]imidazole-5-carbohydrazide] | 25.4% | 25.4% | 34.6% | < 5% | < 5% | 32.5% | 5.71% | 62.7% | 15.2% | 56.6% | < 5% | 56.6% | 55.8% | < 5% | 15.7% | 19% | 48.8% | 24.2% | 36.2% | 79.8% | inhibition at 10 µM (U251): 75.5%; inhibition at 10 µM (UACC-62): 19.6%; inhibition at 10 µM (UO-31): 14.9% |

Source: publication PMC10893631, “Receptor-based pharmacophore modeling, molecular docking, synthesis and biological evaluation of novel VEGFR-2, FGFR-1, and BRAF multi-kinase inhibitors” (BMC Chemistry, 2024)
